These results are taken from article PMC6754500, “Ultra-long-acting tunable biodegradable and removable controlled release implants for drug delivery” (Nature Communications, 2019).

Values after ≈ are worked out from the molar mass of the structure shown. Where a name gives a salt, the structure may show the parent alone. Read-outs that look alike come from different tables or passages of the source. Bounds are passed on as bounds.

The conditions of data set [1]: cited from earlier work; for pKa: Supplementary Table 1; for LogP: log of drug partition coefficient, ref drugbank.ca.
A short description of data set [2]: Saturation concentration (solubility) of drugs in NMP. The data set is classed as physicochemical. Particulars: quantified by HPLC; for solubility at 24 h: 40 °C, organic solvent or mixture, thermodynamic from solid. The procedure: The saturation concentration of a panel of fourteen (14) antiretroviral drugs in NMP was determined. For each drug, 100 mg was weighed into individual vials and 100 mg of NMP was added to each vial. The mixture was stirred at 40 °C for 24 h. […] Sample aliquots (1–2 mg, n = 4) were collected from the saturated supernatant and diluted with acetonitrile (ACN). Drug concentration in the saturated aliquots was determined by HPLC analysis.

The next data set deals with HIV-1. Conditions: cited from earlier work; for IC90: Supplementary Table 1.
The nature of data set [3]: Saturation solubility in PBS with or without 2% solutol. Format: physicochemical. Conditions: for solubility: HPLC.
In another data set the test system is HIV-1JR-CSF. Briefly: In vitro HIV-1 inhibition in TZM-bl cells. The data set is classed as cell-based. Conditions: Human immunodeficiency virus 1, read-out: Effective concentration required to inhibit virus replication by 50% (IC50), DTG eluted (24 h in PBS) from solidified DTG-ISFI stored 6 months at 25 °C.
For data set [4] the following is noted: pH 7; cited from earlier work.

Experimental for HIV-1JR-CSF: DTG-ISFI formulation was stored for 6 months at 25 °C and then solidified in PBS. The concentration of DTG eluted from the solidified implant after 24 h incubation in PBS was determined by HPLC and its HIV inhibitory activity was assessed using TZM-bl cells as described in the methods section.
Viral particles were collected in tissue culture medium that was centrifugated at 2000×g for 20 min at 4 °C to remove cell debris. […] Infected TZM-bl cells were stained using a solution containing 4 µM potassium ferrocyanide, 4 µM potassium ferricyanide, 2 µM magnesium chloride, 0.4 mg/ml X-gal[55],[56] and stained cells counted. TZM-bl cells were cultured at 37 °C 10% CO2 in TZM-bl medium (Dulbecco’s Modified Eagle Medium (Sigma) supplemented with 10% heat-inactivated fetal bovine serum, 25 mM HEPES, 500 units/ml penicillin, 50 µg/ml streptomycin and 2 mM L-glutamine (Cellgro)), and regularly checked for morphology by microscope.
Cells were regularly checked for morphology by microscopy. […] Luciferase activity was measured with a SpectraMax M3 Spectrometer (Molecular Devices, Sunnyvale, CA) and the results normalized to the luciferase activity of cells infected with HIV in the absence of DTG and expressed as a percentage of decrease in luciferase activity. Activity was measured in 3 independent experiments, each dilution measured in quadruplicate.

With `COC(=O)N[C@H](C(=O)N[C@@H](Cc1ccccc1)[C@@H](O)CN(Cc1ccc(-c2ccccn2)cc1)NC(=O)[C@@H](NC(=O)OC)C(C)(C)C)C(C)(C)C` [Atazanavir], in data set [1], the pKa is 4.3 and the LogP is on record as 4.5. The solubility at 24 h in data set [2] (N-methyl-2-pyrrolidone (NMP)) came to 328 ± 2 mg/mL (≈ 465 mM). In addition, in the data set with HIV-1, the “Protein-adjusted IC90 (PA-IC90)” value is 0.014 µg/mL.

Turning to `CC(C)CN(C[C@@H](O)[C@H](Cc1ccccc1)NC(=O)O[C@H]1CO[C@H]2OCC[C@H]21)S(=O)(=O)c1ccc(N)cc1` [Darunavir], the solubility at 24 h in data set [2] (N-methyl-2-pyrrolidone) worked out at 511 ± 2 mg/mL (≈ 933 mM). Further, in the data set with HIV-1, the IC90 is 0.00243 µg/mL (≈ 4.44e-06 mM) and the “Protein-adjusted IC90 (PA-IC90)” value was 0.0024 µg/mL.

Take `C[C@@H]1CCO[C@H]2Cn3cc(C(=O)NCc4ccc(F)cc4F)c(=O)c(O)c3C(=O)N12` [Dolutegravir]: the “Solubility in PBS + 2% solutol relative to PBS with no solutol” value in data set [3] (37 °C) is reported as ~ 6 fold. In addition, the solubility worked out at 0.564 ± 0.0036 mg/mL in data set [3] (PBS + 2% solutol, pH 7.4, aqueous with cosolvent or surfactant or cyclodextrin, thermodynamic from solid, 37 °C) and 0.091 mg/mL (≈ 0.217 mM) in data set [3] (PBS with no solutol, 37 °C, read-out: Solubility in PBS with no solutol). Besides, the lipophilicity (LogP) in data set [1] is on record as 2.2. For the same compound, the solubility at 24 h in data set [2] (N-methyl-2-pyrrolidone (NMP)) stood at 255 ± 4 mg/mL (≈ 608 mM). For the same compound, the “in vitro protein-adjusted IC90 for HIV-1” value with HIV-1 was 0.064 µg/mL. For the same compound, the IC50 in the data set with HIV-1JR-CSF is 0.0021 µg/mL (≈ 5.01e-06 mM).

On to `O=C1Nc2ccc(Cl)cc2[C@@](C#CC2CC2)(C(F)(F)F)O1` [Efavirenz], for which, in data set [1], the lipophilicity (LogP) is given as 4.6. In data set [2] (N-methyl-2-pyrrolidone (NMP)), the solubility at 24 h is 118 ± 2 mg/mL (≈ 374 mM).

Take `Nc1nc(=O)n([C@@H]2CS[C@H](CO)O2)cc1F` [Emtricitabine]: the solubility at 24 h in data set [2] (N-methyl-2-pyrrolidone (NMP)) amounted to 202 ± 3 mg/mL (≈ 817 mM). In the data set with HIV-1, the IC90 is 0.051 µg/mL (≈ 0.000206 mM).

For the compound `Cc1cc(C#N)cc(C)c1Oc1nc(Nc2ccc(C#N)cc2)nc(N)c1Br` [Etravirine], in data set [1], the pKa is 3.75 and the LogP is recorded as 5.54. Moreover, in data set [2] (N-methyl-2-pyrrolidone (NMP)), the solubility at 24 h was 122 ± 2 mg/mL (≈ 280 mM). Moreover, the IC90 in the data set with HIV-1 was 0.0013 µg/mL (≈ 2.99e-06 mM).

Take `Nc1ccn([C@@H]2CS[C@H](CO)O2)c(=O)n1` [Lamivudine]: in data set [2] (N-methyl-2-pyrrolidone (NMP)), the solubility at 24 h turned out to be 250 ± 3 mg/mL (≈ 1090 mM).

Consider `CCN1C[C@H](C)n2c(c(O)c3c(=O)n(Cc4ccc(F)c(Cl)c4)nc(C(=O)NC)c32)C1=O` [MK-2048], for which the “Solubility in PBS + 2% solutol relative to PBS with no solutol” value in data set [3] (pH 7.4) is on record as ~ 9 fold. Besides, in data set [2] (N-methyl-2-pyrrolidone), the “Saturation solubility in NMP” value was 715 ± 5 mg/mL. Moreover, in data set [4], the Solubility in water is given as < 0.1 mg/mL. In the data set with HIV-1 (against HIV-1), the “in vitro 90% inhibitory concentration (IC90)” value is recorded as ~ 0.033 μg/mL. Further, in the data set with HIV-1, the “Protein-adjusted IC90 (PA-IC90)” value is 0.033 µg/mL.

As for `Cc1ccnc2c1NC(=O)c1cccnc1N2C1CC1` [Nevirapine], in data set [1], the pKa is on record as 2.8 and the LogP was 2.5. Besides, the IC90 in the data set on HIV-1 was 0.04 µg/mL (≈ 0.00015 mM).

On to `Cc1nnc(C(=O)NC(C)(C)c2nc(C(=O)NCc3ccc(F)cc3)c(O)c(=O)n2C)o1` [Raltegravir], for which, in data set [1], the pKa was 6.3 and the LogP is reported as -0.39. Also, the solubility at 24 h in data set [2] (N-methyl-2-pyrrolidone) stood at 54 ± 2 mg/mL (≈ 122 mM). Further, the IC90 in the data set on HIV-1 was 0.00053 µg/mL (≈ 1.19e-06 mM).

On to `Cc1cc(/C=C/C#N)cc(C)c1Nc1ccnc(Nc2ccc(C#N)cc2)n1` [Rilpivirine], for which the LogP in data set [1] is listed as 4.86. Moreover, the solubility at 24 h in data set [2] (N-methyl-2-pyrrolidone (NMP)) was found to be 228 ± 5 mg/mL (≈ 622 mM). Further, in the data set on HIV-1, the IC90 is 0.0125 µg/mL (≈ 3.41e-05 mM) and the “Protein-adjusted IC90 (PA-IC90)” value is 0.012 µg/mL.

With `CC(C)c1nc(CN(C)C(=O)N[C@H](C(=O)N[C@@H](Cc2ccccc2)C[C@H](O)[C@H](Cc2ccccc2)NC(=O)OCc2cncs2)C(C)C)cs1` [Ritonavir], the IC90 in the data set with HIV-1 was 2.1 µg/mL (≈ 0.00291 mM).

On to `Cc1cn([C@H]2C=C[C@@H](CO)O2)c(=O)[nH]c1=O` [Stavudine], for which, in data set [1], the pKa is recorded as 10.26 and the LogP was -0.7. Further, the solubility at 24 h in data set [2] (N-methyl-2-pyrrolidone (NMP)) amounted to 248 ± 3 mg/mL (≈ 1110 mM). The IC90 with HIV-1 is 0.03 to 0.3 µg/mL.

In the case of `CC(C)OC(=O)OCOP(=O)(CO[C@H](C)Cn1cnc2c(N)ncnc21)OCOC(=O)OC(C)C` [TenofovirDisoproxil Fumarate], the solubility at 24 h in data set [2] (N-methyl-2-pyrrolidone (NMP)) is 156 ± 2 mg/mL. Further, the IC90 in the data set on HIV-1 was 0.00554 µg/mL.

As a reminder, the pKa is the pH at which an ionisable group is half protonated. As a reminder, the LogP is a log measure of how a compound divides between an organic and an aqueous phase. The term solubility denotes the dissolved amount per volume that the medium holds. The IC90 is the point of the concentration-response curve where the effect stands at 90%.
